This is an account of results in patent publication US20190059368A1, “3,5-DIMETHOXYSTILBENE ANALOGS AND USES THEREOF” (The United States of America, as represented by the …, priority 2017, published 2019).

pIC50: −log10 of the molar value. Converted amounts (≈) assume the structure as drawn.

In one assay the test system is Colletotrichum acutatum. The assay is described as follows: Direct bioautography, antifungal. The format is cell-based. The note with it: 2 mM, 4 μl spotted (2 μl of the positive controls), average of 2 assays; for zone of inhibition at 2000 µM: Colletotrichum acutatum, read-out: zones of inhibition. The protocol:
(§1) The analogs were tested for activity against Colletotrichum acutatum SIMMONDS, C. fragariae BROOKS, and C. gloeosporioides (PENZ) PENZ & SACC. in Penz., using a direct bioautography method as previously described by Tabanca et al. (Nat. Prod. Commun. 2008, 3, 1073) and Wang, et al. (J. Agric. Food Chem. 2013, 61, 4551). Technical grade commercial fungicide standards benomyl, cyprodinil, azoxystrobin, and captan were used at 0.9-1.61 μg/μl concentrations in 95% EtOH. After sample application, each TLC plate was subsequently sprayed with a spore suspension (3.0×10^5 spores/ml) of the fungus of interest and incubated in a moisture chamber for 4 days at 26° C. with a 12 hour photoperiod. Clear zones of fungal growth inhibition on the TLC plate indicated the presence of antifungal constituents in each extract or pure compound. The test compounds were prepared at 2 mM soln. in 95% EtOH, and 4 μl were spotted on the plates (2 μl of the positive controls).

A further assay has as its system C. gloeosporioides. In words: Direct bioautography, antifungal. The format is cell-based, Colletotrichum gloeosporioides. The conditions noted are these: 2 mM, 4 μl spotted (2 μl of the positive controls), average of 2 assays; for zone of inhibition at 2000 µM: Colletotrichum gloeosporioides, read-out: zones of inhibition. The protocol: as §1
In the next assay the test system is C. fragariae. The assay is described as follows: Direct bioautography, antifungal. The conditions noted are these: 2 mM, 4 μl spotted (2 μl of the positive controls), average of 2 assays; for zone of inhibition at 2000 µM: Colletotrichum fragariae, read-out: zones of inhibition. The format is cell-based, Colletotrichum fragariae. The protocol:
as §1

In assay [1] the test system is Meloidogyne incognita eggs. In words: M. incognita egg immersion assay (hatch and mobility of hatched J2). The class given is in vivo. The protocol:
(§2) Two types of assays were used to investigate activity against M. incognita: i) eggs were immersed in solutions of the test compounds, and ii) second-stage juveniles (J2) previously hatched from eggs were immersed in the test solutions. These assays were conducted with procedures similar to those in Meyer, et al. (J. Nematol. 2006, 38, 333). M. incognita race 1 (originally isolated in 2013 from a field in Maryland) was grown in the greenhouse on pepper (Capsicum annuum L.) cultivar PA-136. Egg masses were hand-picked from plant roots, rinsed three times with sterile distilled H2O, and agitated in 0.6% NaClO for 3.5 minutes to separate and surface-sterilize eggs. The eggs were rinsed in sterile distilled H2O and stored overnight at 4° C. before use in egg immersion assays. To collect J2 for direct immersion into the test compounds, sterilized eggs were placed into a hatching chamber made with a Spectra/Mesh Nylon Filter (openings 25 μm in diameter; Spectrum Laboratories Inc., Rancho Dominguez, Calif., USA) in an autoclaved dish. J2 that passed through the filter within 3 days were used immediately for assays.
(§3) The assays were conducted in 96-well polystyrene plates. For the assays with immersed eggs, each well received approximately 50 eggs in 35 μl of sterile deionized water (SDW). For assays with previously hatched J2, a suspension of approximately 50 J2 in 35 μl of SDW was placed into each well. Each well then received 165 μl of treatment or control. The solvent used to dissolve the test chemicals was a 1:1:1 mixture referred to herein as CTD: equal parts Cremophor® EL Castor Oil (BASF Corporation, Vandalia, Ill., USA), Tween 80® (Sigma-Aldrich, St. Louis, Mo., USA), and DMSO (Sigma-Aldrich). A high and low rate of each compound was tested. After addition to the nematode suspensions in the wells, the low and high rates were 83.3 and 166.7 μg/ml of each test compound, respectively, dissolved in 0.5% and 1.0% of each of the three combined solvents. Controls were CTD equivalent to the low and high rates, and SDW. Because of the large number of treatments, the test compounds were divided into two groups for the egg immersion assays. The compounds tested in the egg immersion Assay 1 were 3, 6a, 6e, 6f, 6g, 6n, 7a, 7c, 7e, 7f, 7n, 11, 12, 16, and 17. The compounds tested in the egg immersion Assay 2 were 6b, 6h, 6i, 6j, 6k, 6l , 7b, 7g, 7h, 7i, 7j, 7k, 7l, and 7m (data not shown). Test compounds used for assays with previously hatched J2 were selected based on results with the egg assays. The five compounds tested were 6b, 6f, 6g, 6i, and 7k, high and low rates.
Each polystyrene culture plate was covered with a plastic adhesive sheet (Excel Scientific, Inc., Victorville, Calif., USA) and incubated at 25° C. Ten wells (water controls) or five wells (all other treatments) were used per treatment in each assay. In egg immersion assays, total numbers of hatched J2, and numbers of mobile and immobile J2, were counted after 2 and 7 days incubation in the test compounds. In the first assay with previously hatched J2, the numbers of mobile and immobile J2 were counted after 1 and 2 days incubation, the treatments removed and replaced with a SDW rinse, and 2 days later the mobile vs. immobile J2 counted again. In assays with 6g and 7k, high rates and counts were made on Days 1, 2, 4, and 6, without a SDW rinse.
Data from the M. incognita assays were analyzed with the statistical package JMP 11.2.0 (SAS Institute, Cary, N.C., USA). Differences among numbers of hatched J2 in each treatment, and among percentage of mobile J2 per treatment (number mobile J2/total J2×100), were determined by the ANOVA, and means were compared using Tukey Kramer's adjustment for multiple comparisons (P<0.05). For percent mobile J2 on Day 2 in egg immersion Assays 1 and 2, and Day 4 with the five compounds in the J2 immersion assay, data were log10 (x+1)-transformed before analysis. Data presented are nontransformed means.

In assay [2] the test system is Meloidogyne incognita second-stage juveniles (J2). The assay is described as follows: M. incognita assay with previously hatched J2 immersed in test solutions. The note with it: in vivo. The protocol:
as §2
as §3, with “The five compounds tested were 6b, 6f, 6g, 6i, and 7k, high and low rates.” left out
Each polystyrene culture plate was covered with a plastic adhesive sheet (Excel Scientific, Inc., Victorville, Calif., USA) and incubated at 25° C. […] In egg immersion assays, total numbers of hatched J2, and numbers of mobile and immobile J2, were counted after 2 and 7 days incubation in the test compounds. In the first assay with previously hatched J2, the numbers of mobile and immobile J2 were counted after 1 and 2 days incubation, the treatments removed and replaced with a SDW rinse, and 2 days later the mobile vs. immobile J2 counted again. […]
Data from the M. incognita assays were analyzed with the statistical package JMP 11.2.0 (SAS Institute, Cary, N.C., USA). Differences among numbers of hatched J2 in each treatment, and among percentage of mobile J2 per treatment (number mobile J2/total J2×100), were determined by the ANOVA, and means were compared using Tukey Kramer's adjustment for multiple comparisons (P<0.05). […]

For assay [3], the system named is Mycobacterium intracellulare ATCC 23068. In words: Antimicrobial microplate assay (modified CLSI, AlamarBlue). The format is cell-based. The conditions noted are these: ATCC23068, My. intracellulare. The protocol: (§4) All organisms were obtained from the American Type Culture Collection (ATCC; Manassas, Va., USA) and included the fungi Cryptococcus neoformans ATCC 90113 and the bacteria Staphylococcus aureus ATCC 29213, methicillin-resistant S. aureus ATCC 33591 (MRSA), and Mycobacterium intracellulare ATCC 23068. All organisms were tested using modified versions of the CLSI (formerly NCCLS) methods. For all organisms excluding My. intracellulare, optical density was used to monitor growth. Medium supplemented with 5% AlamarBlue® (BioSource International, Camarillo, Calif., USA) was utilized for growth detection of My. intracellulare. Samples (dissolved in DMSO) were serially diluted in 20% DMSO/saline and transferred (10 μl) in duplicate to 96-well flat-bottom microplates. Inocula were prepared by correcting the OD630 of microbe suspensions in Sabouraud Dextrose for Cr. neoformans, cation-adjusted Mueller-Hinton (Difco) at pH 7.3 for Staphylococcus spp., and 5% AlamarBlue® (BioSource International) in Middlebrook 7H9 broth with OADC enrichment, pH=7.0 for My. intracellulare, to afford an assay volume of 200 μl and final target inocula of: Cr. neoformans.: b 1.5×10^3, My. intracellulare: 2.0×10^6, and Staphylococcus spp.,: 5.0×10^5 CFU/ml. Final sample test concentrations were 1/100th the DMSO stock concentration. […] All organisms were read at either 530 nm using the Biotek Powerwave XS plate reader (Bio-Tek Instruments, VT) or 544ex1590em (My. intracellulare) using the Polarstar Galaxy Plate Reader (BMG LabTechnologies, Germany) before and after incubation: Staphylococcus spp. at 35° C. for 16-20 h, Cr. neoformans at 35° C. for 70-74 h, and My. intracellulare at 37° C. and 10% CO2 for 70-74 h. IC50 Values (concentrations that afford 50% inhibition relative to controls) werecalculated using XLfit 4.2 software (IDBS, Alameda, Calif.) using fit model 201.

Assay [4] relates to Cryptococcus neoformans ATCC 90113. In words: Antimicrobial microplate assay (modified CLSI). The format is cell-based. The note with it: Cr. neoformans. On the procedure: All organisms were obtained from the American Type Culture Collection (ATCC; Manassas, Va., USA) and included the fungi Cryptococcus neoformans ATCC 90113 and the bacteria Staphylococcus aureus ATCC 29213, methicillin-resistant S. aureus ATCC 33591 (MRSA), and Mycobacterium intracellulare ATCC 23068. All organisms were tested using modified versions of the CLSI (formerly NCCLS) methods. For all organisms excluding My. intracellulare, optical density was used to monitor growth. Medium supplemented with 5% AlamarBlue® (BioSource International, Camarillo, Calif., USA) was utilized for growth detection of My. intracellulare. Samples (dissolved in DMSO) were serially diluted in 20% DMSO/saline and transferred (10 μl) in duplicate to 96-well flat-bottom microplates. Inocula were prepared by correcting the OD630 of microbe suspensions in Sabouraud Dextrose for Cr. neoformans, cation-adjusted Mueller-Hinton (Difco) at pH 7.3 for Staphylococcus spp., and 5% AlamarBlue® (BioSource International) in Middlebrook 7H9 broth with OADC enrichment, pH=7.0 for My. intracellulare, to afford an assay volume of 200 μl and final target inocula of: Cr. neoformans.: b 1.5×10^3, My. intracellulare: 2.0×10^6, and Staphylococcus spp.,: 5.0×10^5 CFU/ml. Final sample test concentrations were 1/100th the DMSO stock concentration. Drug controls (Ciprofloxacin (ICN Biomedicals, Ohio, USA) for bacteria and Amphotericin B (ICN Biomedicals) for fungi) were included in each assay. All organisms were read at either 530 nm using the Biotek Powerwave XS plate reader (Bio-Tek Instruments, VT) or 544ex1590em (My. intracellulare) using the Polarstar Galaxy Plate Reader (BMG LabTechnologies, Germany) before and after incubation: Staphylococcus spp. at 35° C. for 16-20 h, Cr. neoformans at 35° C. for 70-74 h, and My. intracellulare at 37° C. and 10% CO2 for 70-74 h. IC50 Values (concentrations that afford 50% inhibition relative to controls) werecalculated using XLfit 4.2 software (IDBS, Alameda, Calif.) using fit model 201.

The subject of assay [5] is Staphylococcus aureus ATCC 29213. In words: Antimicrobial microplate assay (modified CLSI). The class given is cell-based. The conditions noted are these: ATCC29213, S. aureus. On the procedure:
as §4

Assay [6] concerns methicillin-resistant S. aureus ATCC 33591 (MRSA). In words: Antimicrobial microplate assay (modified CLSI). The format is cell-based. The note with it: Staphylococcus aureus. The protocol: as §4
The mark [7] stands for this setting: Cryptococcus neoformans, ATCC90113.

Consider `Cc1cc(C2CC2)nc(Nc2ccccc2)n1` [Cyprodinil, cyprodinil], for which the zone of inhibition at 2000 µM was 18 mm in the assay with Colletotrichum acutatum, 21.5 mm in the assay with C. gloeosporioides and 21.5 mm in the assay with C. fragariae.

On to `COc1cc(/C=C/c2ccc(Cl)c(Cl)c2)cc(OC)c1C` [Compound 6i, (E)-1,3-dimethoxy-5-(3,4-dichlorostyryl)-2-methylbenzene], for which the “Percent mobile J2, assay 2” value in assay [1] (2 days, high rate (166.7 μg/ml)) was found to be 100.0%; in assay [1] (2 days, low rate (83.3 μg/ml)) it was 71.0%; in assay [1] (7 days, high rate (166.7 μg/ml)), 93.2%; in [1] (7 days, low rate (83.3 μg/ml)) it was 87.7%. Also, in assay [1] (in vivo), the “effect on mobility of J2 hatched from eggs immersed in solutions (in words)” value is “some suppressive effect on mobility”. In addition, the “effect on mobility of J2 previously hatched in water and immersed directly (in words)” value in assay [2] is “only 6g and 7k had an effect on J2 mobility”.

As for `COc1cccc(/C=C/c2cc(OC)c(C)c(OC)c2)c1` [Compound 6b, (E)-1,3-dimethoxy-5-(3-methoxystyryl)-2-methylbenzene], the “effect on mobility of J2 previously hatched in water and immersed directly (in words)” value in [2] is “only 6g and 7k had an effect on J2 mobility”.

For the molecule `COc1cc(/C=C/c2ccc(O)cc2)cc(OC)c1C` [Compound 16, (E)-4-(3,5-dimethoxy-4-methylstyryl)phenol], the pIC50 was 4.47 in assay [3], 5.28 in assay [4] (setting [7]), 4.69 in assay [5] and 4.36 in assay [6]. The MIC in assay [3] stood at 74 µM (≈ 20 µg/mL); in assay [4] (setting [7]), 9.25 µM (≈ 2.5 µg/mL); in [5] it was 74 µM (≈ 20 µg/mL); in assay [6] it was 74 µM (≈ 20 µg/mL).

Turning to `C[C@@H]1[C@H](O)[C@@H](C)/C=C/C=C/C=C/C=C/C=C/C=C/C=C/[C@H](O[C@@H]2O[C@H](C)[C@@H](O)[C@H](N)[C@@H]2O)C[C@@H]2O[C@](O)(C[C@@H](O)C[C@@H](O)[C@H](O)CC[C@@H](O)C[C@@H](O)CC(=O)O[C@H]1C)C[C@H](O)[C@H]2C(=O)O` [Amphotericin B, reference compound], in [4], the pIC50 was 6.16 and the MIC was 1.353 µM (≈ 1.25 µg/mL).

As for `O=C1C2CC=CCC2C(=O)N1SC(Cl)(Cl)Cl` (centres unmarked) [Captan, captan], the zone of inhibition at 2000 µM stood at 11.5 mm in the assay with Colletotrichum acutatum, 18.5 mm with C. gloeosporioides and 18.5 mm in the assay with C. fragariae.

Turning to `CCCCNC(=O)n1c(NC(=O)OC)nc2ccccc21` [Benomyl, benomyl], the figures for the zone of inhibition at 2000 µM in the assay on Colletotrichum acutatum, with C. gloeosporioides and with C. fragariae were 17 mm, 20 mm and 20 mm, respectively.

As to `CO/C=C(/C(=O)OC)c1ccccc1Oc1cc(Oc2ccccc2C#N)ncn1` [Azoxystrobin, azoxystrobin], the values for the zones of inhibition in the assay with Colletotrichum acutatum, with C. gloeosporioides and in the assay with C. fragariae were 15 mm, 17.5 mm and 17.5 mm, respectively.
